PMC2749862, “Glucocorticoids with different chemical structures but similar glucocorticoid receptor potency regulate subsets of common and unique genes in human trabecular meshwork cells” (BMC Medical Genomics, 2009)
Where “and” joins values, the source holds several entries; their conditions need not be identical. Identical values can stand only once.

How the values were obtained:
glucocorticoid receptor [1] = molecular target: T1, glucocorticoid receptor (Homo sapiens, UniProt P04150); assay: GR radiolabeled competitive binding assay (IM-9 cell cytosol, [3H]dexamethasone; Cerep); details: for nH (Hill coefficient): IM-9 cell cytosol competition curves; for Ki: IM-9 cell cytosol, calculated by Cheng Prusoff equation; for IC50: read-out: GR binding affinity IC50
T1 sequence (P04150 524-777 limits assumed): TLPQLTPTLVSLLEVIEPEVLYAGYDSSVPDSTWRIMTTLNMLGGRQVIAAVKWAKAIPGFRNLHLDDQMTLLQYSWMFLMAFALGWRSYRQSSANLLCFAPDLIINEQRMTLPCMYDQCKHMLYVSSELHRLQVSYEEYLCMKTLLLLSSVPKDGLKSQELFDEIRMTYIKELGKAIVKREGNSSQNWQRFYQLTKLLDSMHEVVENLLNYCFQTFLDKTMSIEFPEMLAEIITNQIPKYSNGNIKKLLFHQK
Experimental: GR binding affinity assay was performed at Cerep Inc. (Celle l'Evescault, France), according to an established method. […] Nonspecific binding is determined in the presence of 10 μM triamcinolone. Following incubation, the samples are filtered rapidly under vacuum through glass fiber filters (GF/B, Packard) presoaked with 0.3% Poly(ethyleneimine) and rinsed several times with ice-cold 50 mM Tris-HCl using a 96-sample cell harvester (Unifilter, Packard). The filters are dried and counted for radioactivity in a scintillation counter (Topcount, Packard) using a scintillation cocktail (Microscint 0, Packard). The results are expressed as percent inhibition of the control radioligand specific binding. The IC50 values (concentration causing half-maximal inhibition of control specific binding) and Hill coefficients (nH) were determined by non-linear regression analysis of the competition curves generated with mean replicate values using Hill equation curve fitting (Y = D + [(A - D)/(1 + (C/C50)^nH)], where Y = specific binding, D = minimum specific binding, A = maximum specific binding, C = compound concentration, C50 = IC50, and nH = slope factor). […] The inhibition constants (Ki) were calculated using the Cheng Prusoff equation (Ki = IC50/(1+(L/KD)), where L = concentration of radioligand in the assay, and KD = affinity of the radioligand for the receptor). […] The GR binding assay was performed in duplicate.

glucocorticoid receptor [2] = molecular target: T1, glucocorticoid receptor; assay: GeneBLAzer beta-lactamase reporter gene assay, GR transactivation in MMTV-bla HeLa CellSensor cells; assay type: cell-based; details: 5 hr treatment
Experimental: GR transactivation activity was assessed by the Invitrogen SelectScreen Profiling Service (Madison, WI), using Invitrogen GeneBLAzer beta-lactamase reporter gene technology. Profiling was performed using human HeLa cells stably transfected with an expression construct containing β-lactamase cDNA under the control of the MMTV response element previously identified as a GR response element (MMTV-bla HeLa CellSensor®). The MMTV-bla HeLa cells were plated in 384-well plates in 32 μl assay medium (OPTIMEM + 1% charcoal/dextran stripped FBS) at a density of 10,000 cells/well and incubated overnight. […] The β-lactamase activity of each sample was determined by adding 8 μl of 6-fold concentrated LiveBLAzer™ substrate solution to the samples followed by two hours of incubation at room temperature in a Tecan Safire2 plate reader using the appropriate LiveBLAzer™ filter settings. GC treatment was performed in 15-point dose response using a three-fold dilution series starting with a maximum compound concentration of 10 μM. Each data point represents a triplicate sample (n = 3). Assay reproducibility was determined by calculating Z' values for untreated vs. maximum stimulation. The GeneBLAzer assay was performed twice.

TM 86 cells = assay: Microarray gene expression profiling in TM 86 cells (with IPA and GoMiner analysis); assay type: cell-based, human; details: 1 μM, 24 hr
From the text: (§1) Cells were maintained in low glucose Dulbecco's Modified Eagle Medium (DMEM, Invitrogen, Carlsbad, CA) supplemented with 10% (vol/vol) FBS (American Type Culture Collection, Manassas, VA), 1% (vol/vol) penicillin and streptomycin (Invitrogen). Cells from the human HeLa cervical adenocarcinoma cell line (American Type Culture Collection) were maintained in α-MEM medium supplemented with 10% (v/v) FBS, 1% (v/v) penicillin and streptomycin. All cells were used within passages 3 to 6. […] Cells were maintained for one week with medium renewal every other day. The day before the experiment, confluent TM were washed once with phosphate-buffered saline (PBS) and then the cells were maintained in 1% FBS-containing medium with antibiotics. […] Control cells were treated with 0.1%(v/v) dimethylsulfoxide (DMSO). At the end of GC treatment, supernatant was discarded and the cell monolayer was kept frozen at -80°C for subsequent total RNA extraction and gene expression profiling. […] Briefly, RNA was isolated from flash frozen cell culture plates using RNeasy Mini columns (Qiagen, Valencia, CA) according to the manufacturer's protocol. There were three biological replicates per treatment condition. The quantity and purity of the extracted RNA was evaluated using a NanoDrop ND-1000 spectrophotometer (Nanodrop Technologies, Wilmington, DE, USA) and its integrity measured using an Agilent Bioanalyzer. […] The amount and quality of the fluorescently labeled cRNA was assessed using a NanoDrop ND-1000 spectrophotometer and an Agilent Bioanalyzer. An equal amount of Cy3-labeled cRNA (1.6 μg) was hybridized to the Agilent Human Whole Genome Oligo Microarray (Agilent Technologies) for 17 hours, prior to washing and scanning. Data were extracted from scanned images using Agilent's Feature Extraction Software (Agilent Technologies) using default settings. […] The full complement of microarray data has been deposited in the NIH/NLM Gene Expression Omnibus (GEO accession # GSE16643). […] The lists of differentially expressed genes were also applied to global functional, network and canonical pathway analyses using Ingenuity Pathway Analysis (Ingenuity® Systems, Redwood City, CA).

TM 93 cells = assay: Microarray gene expression profiling in TM 93 cells (with IPA and GoMiner analysis); assay type: cell-based, human; details: 1 μM, 24 hr
From the text: as §1

[3] = human, following local administration; cited from earlier work

## CC1(C)O[C@@H]2C[C@H]3[C@@H]4C[C@H](F)C5=CC(=O)C=C[C@]5(C)[C@@]4(F)[C@@H](O)C[C@]3(C)[C@]2(C(=O)CO)O1 [FA, fluocinolone acetonide]
Glucocorticoid receptor [1]
  nH (Hill coefficient): 1.10 ± 0.00
  Ki: 0.97 ± 0.17 nM
  IC50: 2 ± 0.42 nM
Glucocorticoid receptor [2]
  EC50: 0.7 nM and 0.67 nM
TM 86 cells
  function of significantly regulated transcripts (Ingenuity Pathway Analysis): lipid metabolism
  number of genes uniquely regulated by each GC: 693
  significantly regulated biological process (GoMiner gene ontology): actin filament-based process
  significantly regulated network (Ingenuity Pathway Analysis): a GR-dependent network
TM 86 cells; microarray
  ANGPTL4 FC (fold change): 9.6 fold
  ANGPTL7 FC (fold change): 16.0 fold
  AQP1 FC (fold change): -4.4 fold
  CCRL1 FC (fold change): -4.7 fold
  CXADR FC (fold change): -3.4 fold
  FKBP5 FC (fold change): 13.8 fold
  GABRB1 FC (fold change): -4.0 fold
  ITGA10 FC (fold change): 25.1 fold
  KAL1 FC (fold change): -5.6 fold
  KCNB1 FC (fold change): 20.1 fold
  KIF4A FC (fold change): -3.6 fold
  KLF15 FC (fold change): 11.5 fold
  LSP1 FC (fold change): 14.9 fold
  MXRA5 FC (fold change): -4.3 fold
  MYOC FC (fold change): 7.4 fold
  PCDH19 FC (fold change): -5.1 fold
  PER3 FC (fold change): -5.3 fold
  PF4 FC (fold change): 3.1 fold and 3.2 fold
  RASL11B FC (fold change): -4.9 fold
  RGC32 FC (fold change): >100 fold
  SAA1 FC (fold change): 34.6 fold
  ZBTB16 FC (fold change): 8.7 fold
TM 93 cells
  function of significantly regulated genes (Ingenuity Pathway Analysis): cell cycle
  number of genes uniquely regulated by each GC: 2294
  significantly regulated biological process (GoMiner gene ontology): biopolymer metabolic process
  significantly regulated network (Ingenuity Pathway Analysis): JARID1B-based network
TM 93 cells; microarray
  ANGPTL4 FC (fold change): 9.1 fold
  ANGPTL7 FC (fold change): 13.0 fold
  AQP1 FC (fold change): -3.2 fold
  CCRL1 FC (fold change): -2.5 fold
  CXADR FC (fold change): -1.8 fold
  ENST00000344214 FC (fold change): -6.3 fold
  FKBP5 FC (fold change): 6.8 fold
  GABRB1 FC (fold change): -2.2 fold
  ITGA10 FC (fold change): 9.1 fold
  KAL1 FC (fold change): -3.0 fold
  KCNB1 FC (fold change): 5.2 fold
  KIF4A FC (fold change): -2.2 fold
  KLF15 FC (fold change): 3.6 fold
  LSP1 FC (fold change): 18.0 fold
  MXRA5 FC (fold change): -4.5 fold
  MYOC FC (fold change): 2.7 fold
  OCA2 FC (fold change): 98.0 fold
  PCDH19 FC (fold change): -3.9 fold
  PER3 FC (fold change): -3.6 fold
  PF4 FC (fold change): 6.5 fold
  RGC32 FC (fold change): 11.0 fold
  SAA1 FC (fold change): 8.3 fold
  ZBTB16 FC (fold change): 4.9 fold

## C[C@@H]1C[C@H]2[C@@H]3CCC4=CC(=O)C=C[C@]4(C)[C@@]3(F)[C@@H](O)C[C@]2(C)[C@@]1(O)C(=O)CO [DEX, dexamethasone]
Glucocorticoid receptor [1]
  nH (Hill coefficient): 1.06 ± 0.18
TM 86 cells
  function of significantly regulated transcripts (Ingenuity Pathway Analysis): RNA post-transcriptional modifications
  number of genes uniquely regulated by each GC: 1761
  significantly regulated biological process (GoMiner gene ontology): cellular component organization and biogenesis
  significantly regulated network (Ingenuity Pathway Analysis): a network centered around the RNA binding protein S1 or RNPS1
TM 93 cells
  function of significantly regulated genes (Ingenuity Pathway Analysis): histone methylation
  number of genes uniquely regulated by each GC: 745
  significantly regulated biological process (GoMiner gene ontology): membrane lipid metabolic process
  significantly regulated network (Ingenuity Pathway Analysis): a network centered around a histone methyltransferase known as suppressor of zeste 12 homolog or SUZ12

## CC1(C)O[C@@H]2C[C@H]3[C@@H]4CCC5=CC(=O)C=C[C@]5(C)[C@@]4(F)[C@@H](O)C[C@]3(C)[C@]2(C(=O)CO)O1 [TA, triamcinolone acetonide]
Glucocorticoid receptor [1]
  nH (Hill coefficient): 1.05 ± 0.07
  Ki: 0.72 ± 0.24 nM
  IC50: 1.45 ± 0.5 nM
Glucocorticoid receptor [2]
  EC50: 1.29 ± 0.28 nM
TM 86 cells
  function of significantly regulated transcripts (Ingenuity Pathway Analysis): cell morphology
  number of genes uniquely regulated by each GC: 388
  significantly regulated biological process (GoMiner gene ontology): mitotic cell cycle
TM 86 cells; microarray
  ANGPTL4 FC (fold change): 7.9 fold
  ANGPTL7 FC (fold change): 26.5 fold
  AQP1 FC (fold change): -5.1 fold
  CCRL1 FC (fold change): -3.4 fold
  CXADR FC (fold change): -4.8 fold
  ENST00000344214 FC (fold change): -3.1 fold
  FKBP5 FC (fold change): 12.5 fold
  GABRB1 FC (fold change): -4.9 fold
  ITGA10 FC (fold change): 17.7 fold
  KAL1 FC (fold change): -6.7 fold
  KCNB1 FC (fold change): 19.9 fold
  KIF4A FC (fold change): -4.1 fold
  KLF15 FC (fold change): 11.1 fold
  LSP1 FC (fold change): 15.4 fold
  MXRA5 FC (fold change): -5.4 fold
  MYOC FC (fold change): 6.7 fold
  PCDH19 FC (fold change): -5.0 fold
  PER3 FC (fold change): -7.0 fold
  RASL11B FC (fold change): -4.0 fold
  RGC32 FC (fold change): >100 fold
  SAA1 FC (fold change): 35.3 fold
  ZBTB16 FC (fold change): 8.1 fold
TM 93 cells
  function of significantly regulated genes (Ingenuity Pathway Analysis): cell adhesion
  number of genes uniquely regulated by each GC: 555
  significantly regulated biological process (GoMiner gene ontology): smooth muscle cell proliferation
TM 93 cells; microarray
  ANGPTL4 FC (fold change): 5.3 fold
  ANGPTL7 FC (fold change): 20.5 fold
  AQP1 FC (fold change): -2.8 fold
  CCRL1 FC (fold change): -2.1 fold
  CXADR FC (fold change): -2.6 fold
  FKBP5 FC (fold change): 5.8 fold
  GABRB1 FC (fold change): -2.6 fold
  ITGA10 FC (fold change): 5.6 fold
  KAL1 FC (fold change): -3.3 fold
  KCNB1 FC (fold change): 11.3 fold
  KIF4A FC (fold change): -2.3 fold
  KLF15 FC (fold change): 3.9 fold
  MXRA5 FC (fold change): -4.5 fold
  MYOC FC (fold change): 2.6 fold
  OCA2 FC (fold change): >100 fold
  PCDH19 FC (fold change): -3.3 fold
  PER3 FC (fold change): -3.8 fold
  PF4 FC (fold change): 4.4 fold
  RGC32 FC (fold change): 19.9 fold
  SAA1 FC (fold change): 11.9 fold
  ZBTB16 FC (fold change): 5.5 fold
[3]
  ocular tissue concentrations: > 1 µM
